# Measured values reported in US4088793A, “Control of nitrosamine formation in nitrite cured meat” (Canada Packers Limited, priority 1977, dated 1978).
# Experiments:
# [1] = Volatile nitrosamine content of cook-out fat from fried nitrite-cured bacon slices streaked with test compound; details: for blocking of formation of nitrosamines: 20 ppm level of incorporation in the meat; for inhibition of nitrosamine formation: in comparison with the untreated controls
# From the text: The mechanism by which the 1,2-dihydro- and 1,2,3,4-tetrahydro-6-hydroxyquinoline nitroxides interfere with the formation of nitrosamines at high temperature is not completely understood. However, the invention is not limited by any particular theory of operation. It has been shown by a series of tests with representative compounds that up to 100% of the nitrosamines which normally appear in fried bacon have been eliminated.
# The nitroxide compounds from ethoxyquin and from dihydroethoxyquin, prepared as in Examples 1 and 2, respectively, were dissolved in separate portions of winterized soya oil to provide a 4.5% concentration and the resulting solutions were streaked on bacon slices, which had undergone a conventional nitrite cure and plant processing, in quantities providing levels of 1,2-dihydro-2,2,4-trimethyl-6-hydroxy-quinoline nitroxide of from 1 ppm to 100 ppm in the meat for one series of tests and levels of 1 - 20 ppm of the corresponding 1,2,3,4-tetrahydroquinoline nitroxide compound in the meat for another series of tests. Control slices of bacon were streaked with the oil alone. The bacon slices were fried under standardized conditions and the cook-out fat was analyzed for volatile nitrosamine content.
# experimental animals = details: tests on experimental animals; cited from earlier work
molecule,measurement,setting,value
"1,2,3,4-tetrahydro-2,2,4-trimethyl-6-hydroxy-quinoline nitroxide [Nitroxide from Dihydro Ethoxyquin]",blocking of formation of nitrosamines,[1],essentially blocked formation of nitrosamines
same,"Nitrosamines In Cook-Out Fat, Test Product","[1]; Example 13: 20 ppm in meat, control product 35 ppb",3 ppb
same,"Nitrosamines In Cook-Out Fat, Test Product","[1]; Example 14: 10 ppm in meat, control product 35 ppb",13 ppb
same,"Nitrosamines In Cook-Out Fat, Test Product","[1]; Example 15: 1 ppm in meat, control product 35 ppb",20 ppb
same,"Nitrosamines In Cook-Out Fat, Test Product","[1]; Example 16: 20 ppm in meat, control product 36 ppb, figures below 3 ppb not reliable",2 ppb
same,"Nitrosamines In Cook-Out Fat, Test Product","[1]; Example 17: 10 ppm in meat, control product 36 ppb",6 ppb
same,"Nitrosamines In Cook-Out Fat, Test Product","[1]; Example 18: 1 ppm in meat, control product 36 ppb",22 ppb
same,inhibition of nitrosamine formation,[1],excellent inhibition of nitrosamine formation
"1,2-dihydro-2,2,4-trimethyl-6-hydroxy-quinoline nitroxide [Nitroxide from Ethoxyquin]",blocking of formation of nitrosamines,[1],essentially blocked formation of nitrosamines
same,"Nitrosamines In Cook-Out Fat, Test Product","[1]; Example 3: 100 ppm in meat, control product 18 ppb, figures below 3 ppb not reliable",0 ppb
same,"Nitrosamines In Cook-Out Fat, Test Product","[1]; Example 4: 50 ppm in meat, control product 19 ppb, figures below 3 ppb not reliable",0 ppb
same,"Nitrosamines In Cook-Out Fat, Test Product","[1]; Example 5: 10 ppm in meat, control product 19 ppb",3 ppb
same,"Nitrosamines In Cook-Out Fat, Test Product","[1]; Example 6: 1 ppm in meat, control product 19 ppb",13 ppb
same,"Nitrosamines In Cook-Out Fat, Test Product","[1]; Example 7: 20 ppm in meat, control product 8 ppb, figures below 3 ppb not reliable",0 ppb
same,"Nitrosamines In Cook-Out Fat, Test Product","[1]; Example 8: 10 ppm in meat, control product 8 ppb, figures below 3 ppb not reliable",0 ppb
same,"Nitrosamines In Cook-Out Fat, Test Product","[1]; Example 9: 1 ppm in meat, control product 8 ppb, figures below 3 ppb not reliable",2 ppb
same,"Nitrosamines In Cook-Out Fat, Test Product","[1]; Example 10: 20 ppm in meat, control product 38 ppb, figures below 3 ppb not reliable",2 ppb
same,"Nitrosamines In Cook-Out Fat, Test Product","[1]; Example 11: 10 ppm in meat, control product 38 ppb",5 ppb
same,"Nitrosamines In Cook-Out Fat, Test Product","[1]; Example 12: 1 ppm in meat, control product 38 ppb",16 ppb
same,inhibition of nitrosamine formation,[1],excellent inhibition of nitrosamine formation
O=NN1CCCC1 [N-nitrosopyrrolidine],carcinogenicity,experimental animals,carcinogenic
CN(C)N=O [dimethylnitrosamine],carcinogenicity,experimental animals,carcinogenic
